From US4581359A, “Pharmacological treatments with N-7-substituted derivatives of theophylline” (priority 1984, dated 1986)
Several values for one entry are separate records, joined by “and”; a condition that tells them apart may be missing. Equal values may be shown once. Read-outs that look alike come from different tables or passages of the source.

Tests used:
[1] = cited from earlier work
[2] = Dyphylline 20 min intravenous infusion in two healthy male subjects: pharmacokinetics, blood pressure, pulse (Example 2); assay type: in vivo, human; details: bolus injection
[3] = Literature: pharmacokinetics of dyphylline and related derivatives in humans; details: human, in vivo; for Vd/F: po, analysis of Gisclon oral data
[4] = cited from earlier work; remark: listed apart in the source
[5] = Dyphylline 20 min intravenous infusion in two healthy male subjects: pharmacokinetics, blood pressure, pulse (Example 2); assay type: in vivo, human; details: for V2, volume of peripheral compartment: Vd - V1; for Css, steady state: infusion rate/V1 Ke1, predicted only; for half-life / k el / Vd: human, in vivo, iv, 1000 mg; for half-life: 0.693/β
Procedure: 1000 mg of the drug dyphylline was infused over twenty minutes in two heathy male patients to determine the volume of distribution of the central compartment.
A physician evaluated two male volunteer subjects for their drug and disease histories. […] The subjects fasted from 10:00 p.m. before dosing at 7:30 a.m. the following day until four hours post dosing, after which food (except xanthines; i.e. chocolate, tea, coffee) and beverages were allowed ad lib.
A dose of 1,000 mg of dyphylline (Neothylline®) diluted in normal saline (0.9 percent) was administered at a rate of 50 mg/min via a constant infusion pump for twenty minutes. Blood pressure and electrocardiogram readings were monitored by a physician.
Whole blood (7 cc) was collected from each subject at time zero just prior to dosing and at 10, 15, 20, 30, 40 minutes and 1.0, 1.5, 2.0, 3.0, 4.0, 5.0, 6.0, 7.0, 8.0, 12.0, and 16.0 hours post dosing with a syringe. The heparin lock was cleared of all heparin solution and the lock filled with subject blood by using a disposable syringe prior to sampling. Each sample was then collected in a new disposable syringe and immediately transferred to a heparinized vacuum tube. After each sampling, the heparin lock was flushed and filled with heparin (10 u/ml). Once samples had been transferred to vacuum tubes, they were inverted several times, then stored in crushed ice until centrifuged and the plasma collected. Plasma samples were then frozen until assayed.
Plasma and urine samples were assayed by high-pressure liquid chromatography (HPLC) as reported by Gisclon, in the article mentioned above.
Plasma samples were prepared for assay by mixing 0.5 ml of plasma with 0.5 ml of acetonitrile containing β-hydroxyethyltheophylline (40 mcg/ml) as internal standard, and vortexed 15 seconds. The plasma sample with its protein precipitate was then centrifuged for 15 minutes at 2800 rpm and 5-40 μl injected into the HPLC.
FIGS. 5 and 6 show dyphylline plasma concentration vs. time curves for the subjects. Solid circles are the data points which were obtained by duplicate analysis of each sample by different analysts and the solid line represents the predicted values obtained after fitting the data with an Autoan computer package which uses CSTRIP and NONLIN (John G. Wagner, Fundamentals of Clinical Pharmacokinetics, Drug Intelligence Publications,Inc., Hamilton, Ill., 1975). This program determined that the data from time zero to 480 min. (8 hr) for subject one and 420 min. (7 hr) for subject two were compatible with a two compartment open model with zero order infusion for 20 minutes and first order elimination from the central compartment only. The fit to the data was quite good with r^2 =0.996 for subject one and 0.997 for subject two. The average percent deviation for the predicted lines from the data points was 7.7 percent and the estimated concentrations averaged 98.9 percent of the observed concentrations.

[6] = in vivo
Procedure: One horse was administered acetyl promazine thiamyol sodium, quaifensin, and halothane to produce general anesthesia. Dyphylline (20 mg/kg) was given as an intravenous bolus injection in less than 15 seconds and aminophylline (10 mg/kg) was given as an infusion over about 20 minutes. Plasma and cerebral spinal fluid were collected and assayed by high pressure liquid chromatography for both dyphylline and theophylline.

[7] = Dyphylline intravenous infusion in rabbits: blood concentration, pharmacokinetics, toxicity (Example 1); assay type: in vivo, female New Zealand White rabbits
Source text: A high-pressure liquid chromatographic (HPLC) system consisted of a delivery pump (M-6000A, Waters Associates, Milford, Mass.), sample injection apparatus (Model U6K, Waters Associates, Milford, Mass.), 30-cm reverse phase column (μBondapak C18, Waters Associates, Milford, Mass.), UV detector (Model 440, Waters Associates, Milford, Mass.) with wavelength of 280 nm and a dual pen recorder (Soltec Co., Encino, Calif.) which were used at ambient temperature.
Both dyphylline and theophylline stock standard solutions were prepared to contain 10, 40, 80, 120, 150, 320 or 640 mg of each in 50 ml of distilled water. 20 μl of each was then added into 0.38 ml of rabbit blood to prepare working blood standard solutions.
The internal standard used was β-hydroxypropyl theophylline (Aldrich Chemical Co., Inc., Milwaukee, Wis.) in acetonitrile which was prepared in a 500 ml volumetric flask as a stock solution, and kept tightly sealed except during use throughout the experiment. Internal standard solution (0.4 ml) was added to an equal volume (0.4 ml) of sample to precipitate protein. After centrifuging for 10 minutes, the supernatant was injected into the HPLC. The HPLC operating conditions included a mobile phase composed of acetonitrile (6 percent V/V) in distilled water and a flow rate of 2.0 ml/min.
Typical log blood dyphylline concentration versus time plots, for each of the three rabbits following zero-order infusion of 250 mg over fifteen minutes are presented in FIG. 1. […] (1975). Parameters obtained from linear least square fitting of the terminal data to a one-compartment model appear in Table I. The fitted line of the data can be seen in FIG. 1.

[8] = cited from earlier work; remark: listed apart in the source
[9] = cited from earlier work; remark: listed apart in the source
[10] = rabbit, blood, iv, 250 mg, 250.0 mg/rabbit over 15 minutes, alone, rabbits 1-3, mean

Compound: Cn1c(=O)c2c(ncn2CC(O)CO)n(C)c1=O (stereo not drawn) [dyphylline, dihydroxypropyl theophylline]
- pharmacokinetics at high dose ([1]; Poynor): may produce nonlinear pharmacokinetics
- concentration not toxic in dogs ([1]; dogs): 100 µg/mL
- half-time of clearance from the central compartment [2]: four to nine
- Vd ([3]; from Simons et al., read-out: Vd, range over dosage forms): 0.58 to 0.98 L/kg
- Vd/F ([3]; 77.0 kg, complete bioavailability, read-out: central compartment volume): ~52 L
- Vd/F ([3]; 77.0 kg, complete bioavailability, read-out: total volume of distribution): ~67 L
- Vd/F ([3]; 84 percent bioavailability, read-out: Vc): ~0.6 L/kg
- Vd/F ([3]; 84 percent bioavailability, read-out: Vd): ~0.73 L/kg
- Vd/F ([3]; bioavailability 84 percent, read-out: central compartment volume): ~44 L
- Vd/F ([3]; bioavailability 84 percent, read-out: total volume of distribution): ~56 L
- Vd/F ([3]; total bioavailability, read-out: Vc): ~0.68 L/kg
- Vd/F ([3]; total bioavailability, read-out: Vd total): ~0.87 L/kg
- water solubility [4]: high water solubility
- adverse side effects ([5]; 1000 mg over 20 min, two subjects): No adverse side effects were observed or reported
- Blood pressure, diastolic, Subject Two ([5]; 10 M, 15 M, 20 M (end), 30 M, 40 M, 60 M, 90 M, predose 125/80): 80 mm Hg and 85 mm Hg and 75 mm Hg
- K12 ([5]; Subject 1, 1000 mg over 20 min): 1.94 h⁻¹
- K21 ([5]; Subject 1, 1000 mg over 20 min): 2.50 h⁻¹
- α ([5]; Subject 1, 1000 mg over 20 min): 4.73 h⁻¹
- V2, volume of peripheral compartment ([5]; Subject 1): 30.28 L
- Css, steady state ([5]; Subject 1): 142.56 µg/mL
- K12 ([5]; Subject 2, 1000 mg over 20 min): 4.02 h⁻¹
- K21 ([5]; Subject 2, 1000 mg over 20 min): 4.39 h⁻¹
- α ([5]; Subject 2, 1000 mg over 20 min): 8.83 h⁻¹
- V2, volume of peripheral compartment ([5]; Subject 2): 25.45 L
- Css, steady state ([5]; Subject 2): 142.13 µg/mL
- blood pressure and pulse rate ([5]; during the study): essentially unchanged
- half-life ([5]; Subject 1): 127 min
- k el ([5]; Subject 1, 1000 mg over 20 min, read-out: Ke1 (converted)): 0.000172 s⁻¹
- k el ([5]; Subject 1, 1000 mg over 20 min, read-out: β (converted)): 9.17e-05 s⁻¹
- Vd ([5]; Subject 1, read-out: V1): 33.9 L
- Vd ([5]; Subject 1, read-out: V3 (footnote: Vd, total volume of distribution)): 64.2 L
- half-life ([5]; Subject 2): 99.6 min
- k el ([5]; Subject 2, 1000 mg over 20 min, read-out: Ke1 (converted)): 0.000233 s⁻¹
- k el ([5]; Subject 2, 1000 mg over 20 min, read-out: β (converted)): 0.000117 s⁻¹
- Vd ([5]; Subject 2, read-out: V1): 25.1 L
- Vd ([5]; Subject 2, read-out: V3 (footnote: Vd, total volume of distribution)): 50.6 L
- Vd ([5]; two subjects, range, read-out: volume of the central compartment per kg): 0.35 to 0.47 L/kg
- Vd ([5]; two subjects, read-out: total volume of distribution, average): ~0.8 L/kg
- Vd ([5]; two subjects, read-out: volume of the central compartment): 25 to 34 L
- Vd ([5]; two subjects, read-out: volume of the central compartment, average): ~0.41 L/kg
- penetration into cerebral spinal fluid [6]: penetrate into cerebral spinal fluid
- Ccut, blood concentration at the time the infusion was stopped ([7]; 250.0 mg/rabbit zero-order infusion over 15 minutes, alone, rabbits 1-3, mean, 15 min): 81.82 µg/mL and 112.5 µg/mL and 91.70 µg/mL
- signs of toxicity ([7]; blood concentrations about 80 to 112 mcg/ml): did not exhibit any signs of toxicity
- half-life [7, 10]: 35.6 min
- k el [7, 10]: 0.000325 s⁻¹
- Vd ([7]; rabbit, blood, iv, 250 mg, 250.0 mg/rabbit over 15 minutes, alone, rabbits 1-3, mean, read-out: Vd1): 0.895 L/kg
- concentration at 0.25 h ([7]; rabbit, blood, iv, 250 mg, 250.0 mg/rabbit zero-order infusion over 15 minutes, alone, rabbits 1-3, mean, read-out: Ccut, blood concentration at the time the infusion was stopped): 80.8 µg/mL
- concentration at 0.25 h ([7]; rabbit, blood, iv, 250 mg, 15 minutes, three rabbits, read-out: blood concentration when the infusion was stopped): 80 to 112 µg/mL
- Vd ([7]; rabbit, blood, iv, 250 mg, Table I, read-out: average apparent volume of distribution of dyphylline administered alone): 0.82 L/kg
- time post dosing to achieve plasma concentrations ([8]; Joos et al.): 90 min
- plasma concentration of dyphylline ([8]; combined with theophylline and proxyphylline (Bracher; Werdermann)): less than 3.0 mcg/ml
- plasma concentration, each drug ([8]; dyphylline and proxyphylline (Joos et al.), 90 min): about 13 mcg/ml
- average volume of distribution ([9]; 25 mg/kg): 1.01 L/kg
- toxicity at 30 to 50 mcg/ml ([9]; rabbit, in vivo): not toxic
